Test results: US20230122967A1, “NOVEL COMPOUNDS AS INHIBITORS OF PCSK9” (SHENGKE PHARMACEUTICALS (JIANGSU) LTD., priority 2020, published 2023)

What was measured:
Type in all cases: cell-based
[1] = tested on: HepG2 cells; assay: Cell viability assay (HepG2 Survival assay, CellTiter-Glo); conditions: 24 hr, cellular ATP levels
Protocol: (§1) HepG2 cells (ATCC, Cat.: HB-8065) were maintained in Growth medium-Eagle's Minimum Essential Medium (Corning, 10-010-CVR), 10% FBS (Gibco, 10099-141), Penicillin (100 units/mL), Streptomycin ([…]). HepG2 cells were incubated at 37° C., 5% CO2. HepG2 cells were plated in black clear bottom 96-well plates (Corning, 3063) at 40,000 cells/well in 100 μL of growth media. After an overnight incubation, the culture media were changed to serum-free OptiMEM media (Gibco, 31985-062), 90 μL/well. Vehicle, PF-06446846 hydrochloride, berberine, or test compound was added to the culture media, 10 μL/well. After 24 hr cellular ATP levels were measured using CellTiter-Glo® 2.0 Assay (Promega, G9242).

[2] = tested on: PCSK9; assay: PCSK9 ELISA on HepG2 culture medium; conditions: HepG2 cells, 24 hr
Protocol: as §1, with “flat” for “black clear”, “3599)” for “3063)”, “medium was harvested, and 10 μL of the medium” for “cellular ATP levels”, “used for the PCSK9 ELISA (R&D Systems, SPC900).” for “measured using CellTiter-Glo® 2.0 Assay (Promega, G9242).”

[3] = tested on: PCSK9 mRNA; assay: RT-Q-PCR analysis of PCSK9 mRNA in HepG2 cells; conditions: Homo sapiens, 24 h, normalized to GAPDH, read-out: HepG2 Q-PCR PCSK9 mRNA level decrease (10 μM)
Protocol: HepG2 cells (ATCC, Cat.: HB-8065) were maintained in Growth medium-Eagle's Minimum Essential Medium (Corning, 10-010-CVR), 10% FBS (Gibco, 10099-141), Penicillin (100 units/mL), Streptomycin ([…]). HepG2 cells were incubated at 37° C., 5% CO2.
Cells were cultured in growth medium as described above and treated with the vehicle, Berberine or test compound for 24 h. The RNA was extracted using the Total RNA mini Kit (Tiangen, Beijing, China) according to the manufacturer's instructions. Reverse transcription was carried out using the High-Capacity cDNA reverse transcription kit (Thermo Fisher Scientific). Quantitative real-time PCR was performed using a reaction mixture containing cDNA, specific primers [PCSK9, 5′-[…]-3′ (forward) and 5′-[…]-3′ (reverse); GAPDH, 5′-[…]-3′ (forward) and 5′-[…]-3′ (reverse)] and Maxima SYBR Green/ROX qPCR Master Mix (Thermo Fisher Scientific). PCR amplification was carried out in a Real-Time PCR System. The real-time PCR conditions were 37° C. 10 min; 95° C. 10 min; 95° C. 15 s, 60° C. 30 s, 72° C. 30 s, 40 cycle. The amount of % RNA was normalized to the GAPDH level in the same samples.

## CC(C)c1ccc(Oc2ccc(NC(=O)CN(CC(=O)Nc3ccccc3)C(=O)c3ccc(C(F)(F)F)o3)cc2)cc1 [Compound 201-261]
[1]
  HepG2 Survival assay (10 μM): 99%
[2]
  HepG2 PCSK9 ELISA (10 μM) % inhibition: 60%

## CC(C)c1ccc(Oc2ccc(NC(=O)CN(CC(=O)NC3CCCC3)C(=O)c3ccc(C(F)(F)F)[nH]3)cc2)cc1 [Compound 201-235]
[1]
  HepG2 Survival assay (10 μM): 101%
[3]
  inhibition at 10 µM: 72%
[2]
  HepG2 PCSK9 ELISA (10 μM) % inhibition: 73%

## CN(Cc1ccccc1F)C(=O)CN(CC(=O)Nc1ccc(Oc2ccc(F)cc2)cc1)C(=O)c1cc2ccccc2o1 [Compound 201-85]
[1]
  HepG2 Survival assay (10 μM): 100%
[3]
  inhibition at 10 µM: 70%
[2]
  HepG2 PCSK9 ELISA (10 μM) % inhibition: 46%

## O=C(CN(CC(=O)NC1Cc2ccccc2C1)C(=O)c1cc2cccc(F)c2[nH]1)Nc1ccc(Oc2ccccc2)cc1 [Compound 201-15]
[1]
  HepG2 Survival assay (10 μM): 100%
[3]
  inhibition at 10 µM: 95.2%
[2]
  HepG2 PCSK9 ELISA (10 μM) % inhibition: 46%

## CN(Cc1ccccc1)C(=O)CN(CC(=O)Nc1ccc(Oc2ccccc2)cc1)C(=O)c1cc2c(F)cccc2[nH]1 [Compound 201-51]
[1]
  HepG2 Survival assay (10 μM): 93%
[3]
  inhibition at 10 µM: 75%
[2]
  HepG2 PCSK9 ELISA (10 μM) % inhibition: 55%

## O=C(CN(CC(=O)Nc1ccc(Oc2ccc(C(F)(F)F)cc2)cc1)C(=O)c1ccc(C(F)(F)F)o1)NCc1ccccc1 [Compound 201-209]
[1]
  HepG2 Survival assay (10 μM): 92%
[2]
  HepG2 PCSK9 ELISA (10 μM) % inhibition: 91%

## N#Cc1cccc2cc(C(=O)N(CC(=O)Nc3ccc(Oc4ccc(C(F)(F)F)cc4)cc3)CC(=O)NC3CCCC3)[nH]c12 [Compound 201-237]
[1]
  HepG2 Survival assay (10 μM): 98%
[3]
  inhibition at 10 µM: 77%
[2]
  HepG2 PCSK9 ELISA (10 μM) % inhibition: 72%

## CN(Cc1ccccc1)C(=O)CN(CC(=O)N(C)c1ccc(Oc2ccc(F)cc2)cc1)C(=O)c1cc2cc(F)ccc2[nH]1 [Compound 201-54]
[1]
  HepG2 Survival assay (10 μM): 100%
[3]
  inhibition at 10 µM: 61%
[2]
  HepG2 PCSK9 ELISA (10 μM) % inhibition: 52%

## O=C(CN(CC(=O)Nc1ccc(Oc2ccc(F)c(F)c2)cc1)C(=O)c1cc2cccc(F)c2[nH]1)Nc1ccccc1 [Compound 201-274]
[1]
  HepG2 Survival assay (10 μM): 98%
[3]
  inhibition at 10 µM: 88%
[2]
  HepG2 PCSK9 ELISA (10 μM) % inhibition: 77%

## O=C(CN(CC(=O)Nc1ccc(Oc2ccc(C(F)(F)F)cc2)cc1)C(=O)c1cc2cccc(F)c2[nH]1)Nc1ccccc1 [Compound 201-255]
[1]
  HepG2 Survival assay (10 μM): 101%
[3]
  inhibition at 10 µM: 72%
[2]
  HepG2 PCSK9 ELISA (10 μM) % inhibition: 87%

## CN(Cc1ccccc1)C(=O)CN(CC(=O)Nc1ccc(Oc2ccc(F)cc2)cc1)C(=O)c1cc2c(F)cccc2[nH]1 [Compound 201-49]
[1]
  HepG2 Survival assay (10 μM): 100%
[3]
  inhibition at 10 µM: 77%
[2]
  HepG2 PCSK9 ELISA (10 μM) % inhibition: 50%

## CN(Cc1ccccc1F)C(=O)CN(CC(=O)Nc1ccc(Oc2ccc(F)c(F)c2)cc1)C(=O)c1cc2ccccc2o1 [Compound 201-97]
[1]
  HepG2 Survival assay (10 μM): 100%
[3]
  inhibition at 10 µM: 37%
[2]
  HepG2 PCSK9 ELISA (10 μM) % inhibition: 48%

## CN(C(=O)CN(CC(=O)NC1Cc2ccccc2C1)C(=O)c1cc2cccc(F)c2[nH]1)c1ccc(Oc2ccc(F)cc2)cc1 [Compound 201-14]
[1]
  HepG2 Survival assay (10 μM): 93%
[3]
  inhibition at 10 µM: 89.5%
[2]
  HepG2 PCSK9 ELISA (10 μM) % inhibition: 41%

## O=C(CN(CC(=O)Nc1ccc(Oc2ccc(F)cc2)cc1)C(=O)c1cc2cc(F)ccc2[nH]1)NCc1ccccc1F [Compound 201-37]
[1]
  HepG2 Survival assay (10 μM): 100%
[3]
  inhibition at 10 µM: 63%
[2]
  HepG2 PCSK9 ELISA (10 μM) % inhibition: 50%

## CN(Cc1ccccc1F)C(=O)CN(CC(=O)Nc1ccc(Oc2ccc(F)cc2)cc1)C(=O)c1cc2cccc(F)c2[nH]1 [Compound 201-69]
[1]
  HepG2 Survival assay (10 μM): 92%
[3]
  inhibition at 10 µM: 78%
[2]
  HepG2 PCSK9 ELISA (10 μM) % inhibition: 80%

## CN(Cc1ccccc1F)C(=O)CN(CC(=O)Nc1ccc(Oc2ccccc2)cc1)C(=O)c1cc2ccccc2o1 [Compound 201-91]
[1]
  HepG2 Survival assay (10 μM): 100%
[3]
  inhibition at 10 µM: 58%
[2]
  HepG2 PCSK9 ELISA (10 μM) % inhibition: 40%

## CN(Cc1ccccc1F)C(=O)CN(CC(=O)Nc1ccc(Oc2ccccc2)cc1)C(=O)c1ccco1 [Compound 201-127]
[1]
  HepG2 Survival assay (10 μM): 90%
[3]
  inhibition at 10 µM: 92%
[2]
  HepG2 PCSK9 ELISA (10 μM) % inhibition: 74%

## CN(Cc1ccccc1F)C(=O)CN(CC(=O)Nc1ccc(Oc2ccc(F)c(F)c2)cc1)C(=O)c1ccco1 [Compound 201-133]
[1]
  HepG2 Survival assay (10 μM): 100%
[3]
  inhibition at 10 µM: 92%
[2]
  HepG2 PCSK9 ELISA (10 μM) % inhibition: 98%

## O=C(CN(CC(=O)NC1Cc2ccccc2C1)C(=O)c1cc2ccccc2[nH]1)Nc1ccc(Oc2ccccc2)cc1 [Compound 201-11]
[1]
  HepG2 Survival assay (10 μM): 100%
[3]
  inhibition at 10 µM: 79.3%
[2]
  HepG2 PCSK9 ELISA (10 μM) % inhibition: 38%

## CN(Cc1ccccc1)C(=O)CN(CC(=O)N(C)c1ccc(Oc2ccc(F)cc2)cc1)C(=O)c1cc2c(F)cccc2[nH]1 [Compound 201-50]
[1]
  HepG2 Survival assay (10 μM): 100%
[3]
  inhibition at 10 µM: 77%
[2]
  HepG2 PCSK9 ELISA (10 μM) % inhibition: 47%

## O=C(CN(CC(=O)Nc1ccc(Oc2ccc(C(F)(F)F)cc2)cc1)C(=O)c1ccc(C(F)(F)F)[nH]1)Nc1ccccc1 [Compound 201-263]
[1]
  HepG2 Survival assay (10 μM): 88%
[2]
  HepG2 PCSK9 ELISA (10 μM) % inhibition: 84%

## O=C(CN(CC(=O)Nc1ccc(Oc2ccc(F)cc2)cc1)C(=O)c1cc2ccccc2[nH]1)NCc1ccccc1F [Compound 201-41]
[1]
  HepG2 Survival assay (10 μM): 100%
[3]
  inhibition at 10 µM: 75%
[2]
  HepG2 PCSK9 ELISA (10 μM) % inhibition: 72%

## CN(Cc1ccccc1)C(=O)CN(CC(=O)Nc1ccc(Oc2ccc(F)cc2)cc1)C(=O)c1cc2cc(F)ccc2[nH]1 [Compound 201-53]
[1]
  HepG2 Survival assay (10 μM): 100%
[3]
  inhibition at 10 µM: 80%
[2]
  HepG2 PCSK9 ELISA (10 μM) % inhibition: 50%

## O=C(CN(CC(=O)Nc1ccc(Oc2ccccc2)cc1)C(=O)c1cc2ccccc2[nH]1)NCc1ccccc1F [Compound 201-43]
[1]
  HepG2 Survival assay (10 μM): 100%
[3]
  inhibition at 10 µM: 77%
[2]
  HepG2 PCSK9 ELISA (10 μM) % inhibition: 60%

## O=C(CN(CC(=O)NC1Cc2ccccc2C1)C(=O)c1cc2cccc(F)c2[nH]1)Nc1ccc(Oc2ccc(F)cc2)cc1 [Compound 201-13]
[1]
  HepG2 Survival assay (10 μM): 97%
[3]
  inhibition at 10 µM: 93.3%
[2]
  HepG2 PCSK9 ELISA (10 μM) % inhibition: 64%

## O=C(CN(CC(=O)Nc1ccc(Oc2ccccc2)cc1)C(=O)c1cc2cccc(F)c2[nH]1)Nc1ccccc1 [Compound 201-258]
[1]
  HepG2 Survival assay (10 μM): 97%
[2]
  HepG2 PCSK9 ELISA (10 μM) % inhibition: 69%

## CC(C)c1ccc(Oc2ccc(NC(=O)CN(CC(=O)NCc3ccccc3)C(=O)c3ccc(C(F)(F)F)[nH]3)cc2)cc1 [Compound 201-249]
[1]
  HepG2 Survival assay (10 μM): 97%
[2]
  HepG2 PCSK9 ELISA (10 μM) % inhibition: 85%

## CN(Cc1ccccc1F)C(=O)CN(CC(=O)Nc1ccc(Oc2ccc(F)cc2)cc1)C(=O)c1ccc(C(F)(F)F)o1 [Compound 201-103]
[1]
  HepG2 Survival assay (10 μM): 100%
[3]
  inhibition at 10 µM: 85%
[2]
  HepG2 PCSK9 ELISA (10 μM) % inhibition: 86%
